Each structure is given as a SMILES string.

This series in a line: gradient 5% acetonitrile 3 min, to 50% in 2 min, to 85% in 15 min, held 3 min, 100 µL/min. As to conditions: column: Zorbax Extend-C18 2.1 x 50 mm; eluents: water / acetonitrile, 0.1% formic acid. The method, boiled down:
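Retention times of pure standards were taken from adduct peaks that were selected by computer and manually inspected. Over 3 months, mixtures of ~100 molecules were run by HPLC–quadrupole time-of-flight mass spectrometry in positive and negative ionization mode. The Zorbax Extend-C18 column (2.1 × 50 mm, 1.8 μm) ran at 100 μL/min in water and acetonitrile, each containing 0.1% formic acid, with 40 μL dead volume and 900 μL dwell volume.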
In the case of `COc1ccc(C2CC(=O)N(c3cccc(OC)c3)C(=O)C2)cc1`, the RP-LC retention time stood at 860 s. The result for `COc1ccc(-n2ccc(=O)c(-c3nc(-c4cccc(F)c4)no3)n2)cc1` reads 868 s; that for `CCC(C)NS(=O)(=O)c1c(C)nn(-c2ccc(-c3ccc(C)cc3)nn2)c1C` (centres undefined), 1040 s. As to `CC(C)c1nnc(-c2ccc(S(=O)(=O)NC3CCCCC3)o2)o1`, the RP-LC retention time was 904 s. The result for `Nc1cc(C2CCN(C(=O)c3cccnc3)CC2)no1` reads 554 s. Regarding `Cc1cc(C)cc(NC(=O)N2CCCC(C)(C(=O)NCc3ccccc3C)C2)c1` (centres undefined), the RP-LC retention time was determined as 897 s.

Compound `CCOC(=O)N1CCN(C(=O)c2cc(S(=O)(=O)N3CCOCC3)ccc2OC)CC1` displayed an RP-LC retention time of 636 s. As for `O=C1CC(c2cccs2)Cc2nc(N3CCN(c4ccccn4)CC3)ncc21` (centres undefined), the figure is 674 s; as for `O=C(CSc1nnc(-c2ccncc2)o1)Nc1cccc([N+](=O)[O-])c1`, 669 s. In turn, `O=C(Cn1nc(N2CCOCC2)c2ccccc2c1=O)Nc1ccccc1` returned an RP-LC retention time of 742 s.

Regarding `O=C(CN1C(=O)C(C(=O)N2CCCC2)Sc2ccccc21)N1CCN(c2ccccc2F)CC1` (centres undefined), the RP-LC retention time came to 859 s. In turn, `Cc1ccc(-c2nc3ncccn3c2NCc2ccc(F)cc2)cc1` showed an RP-LC retention time of 755 s. Regarding `CC(C)N1C(=O)C(C)(C(=O)NCc2ccc(F)cc2)Oc2cccnc21` (centres undefined), the RP-LC retention time amounted to 984 s. `CCCNc1cc(N2CCC(CCC(=O)NCCc3cccnc3)CC2)ncn1` displayed an RP-LC retention time of 542 s. Compound `Cc1ccc(N2CCN(C(=O)c3cn(-c4ccc(NC(=O)C5CC5)cn4)cn3)CC2)c(C)c1` returned an RP-LC retention time of 913 s. As for `CCC1CN(C(=O)N2CCC(C(=O)NCCN3CCOCC3)CC2)c2ccccc2O1` (centres undefined), the figure is 630 s. `CNC(=O)C1CN(C(=O)c2ccccc2C(F)(F)F)CC12CCCC2` (centres undefined): the RP-LC retention time came out at 609 s. In turn, `Cn1c(CNC(=O)CSc2nnc(-c3ccc4c(c3)OCO4)o2)nc2ccccc21` gave an RP-LC retention time of 1020 s. The result for `CCn1cnc(S(=O)(=O)N2CCC(C(=O)NCc3ccc(F)cc3)CC2)c1` reads 700 s; that for `O=C(Nc1ccc2scnc2c1)c1ccc(Cl)cc1Cl`, 801 s; that for `O=C(Nc1cccc(N2CCCS2(=O)=O)c1)Nc1cccs1`, 696 s. Compound `Cc1cccc(NC(=O)N2CCC(n3cnc4c(C)cccc4c3=O)CC2)c1` came in with an RP-LC retention time of 836 s. The result for `CCCCn1c(=O)c2ccccc2n(Cc2nc(-c3ccc(OCC)c(OC)c3)no2)c1=O` reads 968 s; that for `CC(C)CN1CCN(C(=O)c2nc(-c3ccnc(N4CCCCC4)c3)no2)CC1`, 588 s. As for `CCCN(CC1CCOC1)C(=O)Nc1ccc(Cl)cc1F` (centres undefined), the figure is 853 s; as for `O=c1ccn(-c2cccc(F)c2)nc1-c1nc(-c2cccc(Br)c2)no1`, 995 s. As to `CCOC(=O)N1CCN(S(=O)(=O)c2ccc(C(=O)Nc3cccc(C)n3)cc2)CC1`, the RP-LC retention time came out at 721 s.

With `COCCOc1ccc(C(=O)N2CCNC(=O)C2CC(=O)OC2CCCCC2)cc1` (centres undefined), the RP-LC retention time was 720 s.

The compound `Cc1cccc(C)c1NC(=O)Nc1ccc(S(N)(=O)=O)cc1` showed an RP-LC retention time of 751 s.

In turn, `O=C1CCN(C(=O)COc2ccccc2Cl)c2ccccc2N1` returned an RP-LC retention time of 718 s. `CC1CCCN(C(=O)C2CC(=O)N(c3ccc4c(c3)CCN4C(=O)C3CC3)C2)C1` (centres undefined) registered an RP-LC retention time of 758 s. With `CCc1nc2cc(-c3noc(Cc4ccc(OC)cc4)n3)ccc2o1`, the RP-LC retention time was determined as 1030 s. In the case of `CCC(=O)N1c2ccc(S(=O)(=O)CCC(=O)N3CCN(c4ccc(OC)cc4)CC3)cc2CC1C` (centres undefined), the RP-LC retention time was 785 s. In turn, `COc1ccc(Cn2cc(S(=O)(=O)N3CCCCCC3)ccc2=O)cc1` showed an RP-LC retention time of 818 s. The result for `Cc1noc(C)c1-c1ccc(S(=O)(=O)NC2CCCCCC2)cc1` reads 1010 s; that for `COc1ccc(OC)c(CNC(=O)C2CCCN(c3nnc4cccc(C)n34)C2)c1` (centres undefined), 672 s. In turn, `COc1ccc(N2CCN(C(=O)C3CCN(S(=O)(=O)c4cn(C)cn4)CC3)CC2)cc1` yielded an RP-LC retention time of 628 s. The result for `CCCn1c(=O)sc2cc(S(=O)(=O)N3CCC(C(=O)NCc4ccco4)CC3)ccc21` reads 848 s. Compound `O=C(Nc1ccccc1)c1nnc(CCCC(=O)N2CCN(c3ccccn3)CC2)s1` had an RP-LC retention time of 638 s.

In turn, `CC(C)OCCCNCc1ccc2c(c1)n(C)c(=O)n2C` yielded an RP-LC retention time of 592 s. As for `CCc1nc2cc(N3CCC(C(=O)NCc4cccnc4)CC3)cnc2nc1CC`, the figure is 598 s; as for `Cc1nnc2c(=O)n(CC(=O)N3CCCCC3)c3cccnc3n12`, 616 s; as for `COc1ccc(-c2nnc(-c3ccccc3Cl)o2)cc1S(=O)(=O)N1CCOCC1`, 871 s. As to `Cn1cc(-c2cc3n(n2)CCC(=O)N3CCCC(=O)N2CCOCC2)c2ccccc21`, the RP-LC retention time turned out to be 692 s. `CCOc1ccc(NC(=O)Cc2nnc3ccc(C(=O)Nc4ccccc4)cn23)cc1` registered an RP-LC retention time of 798 s. The result for `O=C(Nc1c(-c2ccc(F)cc2)nc2ccccn12)c1ccc(Cl)c([N+](=O)[O-])c1` reads 733 s; that for `CCn1cnc(S(=O)(=O)N2CCC(C(=O)Nc3ccc(C)cc3C)CC2)c1`, 741 s; that for `CC(=O)N1CCc2cc(N3CC(C(=O)NC(C)c4ccccn4)CC3=O)ccc21` (centres undefined), 904 s. `CC1(C(=O)NC2CCCCCC2)Cn2c(cc3occc32)C(=O)N1Cc1ccccn1` (centres undefined) yielded an RP-LC retention time of 766 s. The result for `COCc1noc(CC2CCOC3(CCN(C(=O)C4(c5ccccc5)CC4)CC3)C2)n1` (centres undefined) reads 820 s; that for `Cc1csc(-c2cc(S(=O)(=O)NCCC3=CCCCC3)cn2CC(=O)N2CCCCC2)n1`, 1140 s; that for `Cn1ncc2c(N3CCSCC3)nc(C(=O)N3CCN(c4ccc(F)cc4)CC3)nc21`, 841 s. In turn, `Cc1ccc(-c2nc(-c3ccc4ncn(C)c4c3)no2)cc1C` had an RP-LC retention time of 842 s. On to `O=S(=O)(c1ccccc1F)N1CC(F)(F)C[C@H]1CN1CCc2ccccc2C1`, for which the RP-LC retention time is 738 s. `COc1cc(CC(=O)N2CCc3cc(-c4ccno4)ccc32)cc(OC)c1` yielded an RP-LC retention time of 921 s. The result for `Cc1cc(C)n(-c2ccnc(N3CCC(C(=O)NCCc4ccccn4)CC3)n2)n1` reads 575 s; that for `COC(=O)c1cnc(N2CCN(Cc3ccccc3)CC2)c2ccccc12`, 682 s; that for `CC(=O)c1cccc(NC(=O)N2CCN(Cc3ccccc3)c3ncccc32)c1`, 732 s.

On to `O=c1c2oc3ccccc3c2ncn1Cc1nc(-c2cccc(Br)c2)no1`, for which the RP-LC retention time was 1060 s. As for `CCOc1ccc(-c2nc3ncccn3c2NCc2ccccc2)cc1OC`, the figure is 697 s. The result for `Cc1nnc(N2CCCC(C(=O)NCCN3CCCC3)C2)c2nn(-c3ccc(Cl)cc3)c(C)c12` (centres undefined) reads 591 s; that for `CC1CCN(C(=O)C2CCCN(c3ccnc(-c4ccc(F)cc4)n3)C2)CC1` (centres undefined), 706 s.

For the compound `CCc1ccccc1N1C(=O)CN(S(C)(=O)=O)CC1(C)C(=O)NCc1ccc(Cl)cc1` (centres undefined), the RP-LC retention time is 893 s. On to `CCN(CC)CCOc1ccccc1/C=C/c1noc2ccccc12`, for which the RP-LC retention time came out at 724 s. In turn, `Cn1cnc(S(=O)(=O)N2CCC(C(=O)Nc3ccc(F)c(F)c3)CC2)c1` returned an RP-LC retention time of 709 s. Regarding `Cn1cnc2c(C(=O)NCc3ccco3)nn(-c3ccc(Cl)cc3)c2c1=O`, the RP-LC retention time came to 834 s. The compound `CN1C(=O)CCc2cc(NC(=O)c3cccs3)ccc21` gave an RP-LC retention time of 671 s. The result for `CC(C)NC(=O)C1CCCN(c2nc3ncn(CC(=O)NCc4ccc(F)cc4)c(=O)c3s2)C1` (centres undefined) reads 689 s; that for `CCOC(=O)CCC(=O)Nc1ncc(C#N)s1`, 667 s. Compound `CCOC(=O)c1c(S(=O)(=O)N2CCC(C(=O)NCc3ccccc3Cl)CC2)c(C)n(C)c1C` yielded an RP-LC retention time of 862 s. With `COc1ccc(-c2nc(N3CCOCC3)c3ccccc3n2)cc1`, the RP-LC retention time was 669 s. The result for `CCOCCCNC(=O)C(CC)n1nc(C)c2nn(-c3ccccc3)c(C)c2c1=O` (centres undefined) reads 823 s. Consider `CCc1ccccc1N1C(=O)CC(N2CCC(C(N)=O)CC2)C1=O` (centres undefined), for which the RP-LC retention time was 591 s. As to `Cc1ccc(C)c(N2CCN(C(=O)Cn3nc(C(=O)N4CCCC4)c4ccccc43)CC2)c1`, the RP-LC retention time is 1040 s.

`CCCN(CC1CCOC1)S(=O)(=O)c1cccc(C)c1` (centres undefined) had an RP-LC retention time of 931 s.

The compound `Cc1cc(-c2nnc(-c3ccccc3)o2)c(C)n1CC(=O)Nc1cc(F)cc(F)c1` registered an RP-LC retention time of 747 s. As for `CC(C)NC(=O)Cn1ccn2nc(-c3ccc(F)cc3)c(CO)c2c1=O`, the figure is 682 s; as for `CCN(CC)C(=O)c1cc2c(s1)CCC(C(=O)O)C2` (centres undefined), 703 s; as for `Cc1ccc(-n2cc3c(N4CCCC(C(=O)NCc5ccc(OC(C)C)cc5)C4)ncnc3n2)cc1` (centres undefined), 765 s.

The record behind these values is the METLIN SMRT retention time set (Domingo-Almenara et al. 2019).
